Test results published in ChEMBL document CHEMBL5725356, “Anti-fibrotic pyridinones” (2017).

Experiment: ET-1 Assay: Fibroblasts (primary human lung and dermal, HFL-1, 3T3 etc) are seeded in 96-well plates at ~15000 cells/well and serum starved for 0-48 hours. After media exchange, compounds serially diluted in DMSO are added to the cells. After a brief incubation of ~30 min, stimulants (TGFb, serum, LPA etc) are added followed by further incubation for 16-48 hours. Media is then harvested and stored frozen in plate format for later endothelin-1 (ET-1) determination by ELISA. Toxicity measurements are made using the ATPlite kit (Perkin-Elmer). ET-1 is quantified using an ELISA kit (R&D Systems). The amount of ET-1 produced in the assay wells are back-calculated using the ELISA standard. The ability of a compound to inhibit ET-1 production is typically analyzed by fitting dose-response curves to a 4-parameter logistic function to obtain an EC50 value.
Conditions: HFL1

Row | SMILES | EC50
1 | Cc1cc(=O)n(-c2ccc(C(F)(F)F)cc2)cc1-c1ccc(F)cc1 | > 200 µM
2 | O=C1CCCN1CCOc1cc(=O)n(-c2ccc(OC(F)(F)F)cc2)cc1-c1ccc(F)cc1 | > 200 µM
3 | O=C(NCc1ccccc1)c1cc(=O)n(-c2ccc(OC(F)(F)F)cc2)cc1-c1ccc(F)cc1 | > 200 µM
4 | CC(=O)Nc1cccc(-n2cc(-c3ccccc3)c(C)cc2=O)c1 | > 200 µM
5 | Cn1cc(-c2cn(-c3ccc(OC(F)(F)F)cc3)c(=O)cc2NCc2ccccc2)cn1 | < 50 µM
6 | CC(=O)Nc1cc(=O)n(-c2ccc(OC(F)(F)F)cc2)cc1-c1cnn(C)c1 | > 200 µM
7 | Cc1cc(=O)n(-c2ccc(OC(F)(F)F)cc2)cc1-c1cccc(F)c1 | < 50 µM
8 | Cc1cc(=O)n(-c2ccccc2)cc1-c1ccc(F)cc1 | in the range around 125 µM
9 | O=c1cc(OC2CCS(=O)(=O)CC2)c(-c2ccc(F)cc2)cn1-c1ccc(OC(F)(F)F)cc1 | < 50 µM
10 | CCCNC(=O)Nc1cc(=O)n(-c2ccc(OC(F)(F)F)cc2)cc1-c1ccc(F)cc1 | > 200 µM
11 | COC(=O)Nc1cc(=O)n(-c2ccc(OC(F)(F)F)cc2)cc1-c1ccc(F)cc1 | > 200 µM
12 | Cc1cc(=O)n(-c2cccc(N)c2)cc1-c1ccc(F)cc1 | in the range around 125 µM
13 | O=C1CNCCN1CCOc1cc(=O)n(-c2ccc(OC(F)(F)F)cc2)cc1-c1ccc(F)cc1 | > 200 µM
14 | Cc1cc(=O)n(-c2cccc(OC(F)(F)F)c2)cc1-c1ccccc1 | < 50 µM
15 | Cc1cc(=O)n(-c2ccc(OC(F)(F)F)cc2C)cc1-c1ccc(F)cc1 | < 50 µM
16 | Cn1cc(-c2cn(-c3ccc(OC(F)(F)F)cc3)c(=O)cc2OCCN2CCCC2=O)cn1 | > 200 µM
17 | Cc1cc(=O)n(-c2ccccc2F)cc1-c1ccc(F)cc1 | in the range around 125 µM
18 | CCCOC(=O)Nc1cc(=O)n(-c2ccc(OC(F)(F)F)cc2)cc1-c1ccc(F)cc1 | > 200 µM
19 | Cn1cc(-c2cn(-c3ccc(OC(F)(F)F)cc3)c(=O)cc2N)cn1 | > 200 µM
20 | Cn1cc(-c2cn(-c3ccc(OC(F)(F)F)cc3)c(=O)cc2N2CCc3ccccc3C2)cn1 | in the range around 125 µM
21 | Cn1cc(-c2cn(-c3ccc(OC(F)(F)F)cc3)c(=O)cc2NCCc2ccccc2)cn1 | > 200 µM
22 | Cn1cc(-c2cn(-c3ccc(OC(F)(F)F)cc3)c(=O)cc2OCCN2CCOCC2)cn1 | > 200 µM
23 | O=C(Nc1cc(=O)n(-c2ccc(OC(F)(F)F)cc2)cc1-c1ccc(F)cc1)OCc1ccccc1 | > 200 µM
24 | Cn1cc(-c2cn(-c3ccc(OC(F)(F)F)cc3)c(=O)cc2OCc2ccccc2)cn1 | > 200 µM

Row | SMILES | EC50
25 | CCOc1ccc(-n2cc(-c3ccccc3)c(C)cc2=O)c(C)c1 | in the range around 125 µM
26 | CCOC(=O)Nc1cc(=O)n(-c2ccc(OC(F)(F)F)cc2)cc1-c1ccc(F)cc1 | > 200 µM
27 | Cn1cc(-c2cn(-c3ccc(OC(F)(F)F)cc3)c(=O)cc2NCc2cccnc2)cn1 | in the range around 125 µM
28 | Cc1cc(=O)n(-c2ccc3c(c2)OCCO3)cc1-c1ccc(F)cc1 | > 200 µM
29 | COc1cc(=O)n(-c2ccc(OC(F)(F)F)cc2)cc1-c1cnn(C)c1 | < 50 µM
30 | CCC(=O)Nc1cc(=O)n(-c2ccc(OC(F)(F)F)cc2)cc1-c1ccc(F)cc1 | > 200 µM
31 | COC(=O)Nc1cc(=O)n(-c2ccc(OC(F)(F)F)cc2)cc1-c1cnn(C)c1 | > 200 µM
32 | Cn1cc(-c2cn(-c3ccc(OC(F)(F)F)cc3)c(=O)cc2N2CCOCC2)cn1 | < 50 µM
33 | O=c1cc(Oc2ccccc2)c(-c2ccc(F)cc2)cn1-c1ccc(OC(F)(F)F)cc1 | > 200 µM
34 | Cn1cc(-c2cn(-c3ccc(OC(F)(F)F)cc3)c(=O)cc2OC2CCS(=O)(=O)CC2)cn1 | in the range around 125 µM
35 | CNc1cc(=O)n(-c2ccc(OC(F)(F)F)cc2)cc1-c1cnn(C)c1 | > 200 µM
36 | Cn1cc(-c2cn(-c3ccc(OC(F)(F)F)cc3)c(=O)cc2NCc2c(F)cccc2F)cn1 | in the range around 125 µM
37 | Cc1cc(=O)n(-c2cccc(C(F)(F)F)c2)cc1-c1ccccc1 | < 50 µM
38 | CC(C)OC(=O)Nc1cc(=O)n(-c2ccc(OC(F)(F)F)cc2)cc1-c1cnn(C)c1 | > 200 µM
39 | CN(Cc1ccccc1)c1cc(=O)n(-c2ccc(OC(F)(F)F)cc2)cc1-c1cnn(C)c1 | < 50 µM
40 | Cc1cc(=O)n(-c2ccc(Cl)cc2C)cc1-c1ccccc1 | in the range around 125 µM
41 | Cc1cc(=O)n(-c2cccc(OC(F)(F)F)c2)cc1-c1ccc(F)cc1 | < 50 µM
42 | Cn1cc(-c2cn(-c3ccc(OC(F)(F)F)cc3)c(=O)cc2Oc2cc(Cl)cc(C#N)c2)cn1 | > 200 µM
43 | CCOc1ccc(-n2cc(-c3ccc(F)cc3)c(OC)cc2=O)c(C)c1 | < 50 µM
44 | CN1CCN(CCOc2cc(=O)n(-c3ccc(OC(F)(F)F)cc3)cc2-c2ccc(F)cc2)CC1 | < 50 µM
45 | CCCCC(=O)Nc1cc(=O)n(-c2ccc(OC(F)(F)F)cc2)cc1-c1ccc(F)cc1 | > 200 µM
46 | CCOc1ccc(-n2cc(-c3cccc(F)c3)c(C)cc2=O)c(C)c1 | in the range around 125 µM
47 | CC(=O)Nc1cc(=O)n(-c2ccc(OC(F)(F)F)cc2)cc1-c1ccc(F)cc1 | > 200 µM
48 | CNC(=O)c1cccc(-n2cc(-c3ccc(F)cc3)c(C)cc2=O)c1 | in the range around 125 µM

Row | SMILES | EC50
49 | Cn1cc(-c2cn(-c3ccc(OC(F)(F)F)cc3)c(=O)cc2OCCN2CCS(=O)(=O)CC2)cn1 | > 200 µM
50 | Cn1cc(-c2cn(-c3ccc(OC(F)(F)F)cc3)c(=O)cc2Oc2ccccc2)cn1 | < 50 µM
51 | Cc1cc(=O)n(-c2ccc(OC(F)(F)F)cc2)cc1-c1ccccc1 | < 50 µM
52 | CCOc1ccc(Oc2cc(=O)n(-c3ccc(OC(F)(F)F)cc3)cc2-c2cnn(C)c2)cc1C#N | < 50 µM
53 | Cc1cc(=O)n(-c2cccc(C(F)(F)F)c2)cc1-c1ccc(F)cc1 | in the range around 125 µM
54 | Cc1cc(=O)n(-c2ccc3c(c2)OCO3)cc1-c1ccc(F)cc1 | > 200 µM
55 | Cc1cc(=O)n(-c2cccc(C(N)=O)c2)cc1-c1ccc(F)cc1 | > 200 µM
56 | Cn1cc(-c2cn(-c3ccc(OC(F)(F)F)cc3)c(=O)cc2OCCN2CCOCC2=O)cn1 | in the range around 125 µM
57 | CC(=O)Nc1cccc(-n2cc(-c3ccc(F)cc3)c(C)cc2=O)c1 | > 200 µM
58 | O=C1COCCN1CCOc1cc(=O)n(-c2ccc(OC(F)(F)F)cc2)cc1-c1ccc(F)cc1 | in the range around 125 µM
59 | O=C(NCc1ccccc1)Nc1cc(=O)n(-c2ccc(OC(F)(F)F)cc2)cc1-c1ccc(F)cc1 | > 200 µM
60 | Cn1cc(-c2cn(-c3ccc(OC(F)(F)F)cc3)c(=O)cc2N2CCCCC2)cn1 | > 200 µM
61 | CCCCOC(=O)Nc1cc(=O)n(-c2ccc(OC(F)(F)F)cc2)cc1-c1cnn(C)c1 | in the range around 125 µM
62 | Cn1cc(-c2cn(-c3ccc(OC(F)(F)F)cc3)c(=O)cc2NCc2c(Cl)cccc2Cl)cn1 | > 200 µM
63 | Cc1cc(=O)n(-c2cccc(NC(N)=O)c2)cc1-c1ccc(F)cc1 | < 50 µM
64 | Cn1cc(-c2cn(-c3ccc(OC(F)(F)F)cc3)c(=O)cc2NCc2ccccn2)cn1 | < 50 µM
65 | Cc1cc(=O)n(-c2cccc3c2OCO3)cc1-c1ccc(F)cc1 | in the range around 125 µM
66 | Cc1cc(=O)n(-c2cccc3c2OCCO3)cc1-c1ccc(F)cc1 | in the range around 125 µM
67 | COCCOc1cc(=O)n(-c2ccc(OC(F)(F)F)cc2)cc1-c1cnn(C)c1 | > 200 µM
68 | Cn1cc(-c2cn(-c3ccc(OC(F)(F)F)cc3)c(=O)cc2NC(=O)OCc2ccccc2)cn1 | in the range around 125 µM
69 | Cn1cc(-c2cn(-c3ccc(OC(F)(F)F)cc3)c(=O)cc2OCCN2CCCC2)cn1 | in the range around 125 µM
70 | COc1ccc(CNc2cc(=O)n(-c3ccc(OC(F)(F)F)cc3)cc2-c2cnn(C)c2)cc1 | < 50 µM
71 | Cc1cc(=O)n(-c2ccc(C(F)(F)F)cc2)cc1-c1ccccc1 | < 50 µM
72 | Cn1cc(-c2cn(-c3ccc(OC(F)(F)F)cc3)c(=O)cc2C(=O)O)cn1 | > 200 µM

Row | SMILES | EC50
73 | Cc1cc(=O)n(-c2ccc(OC(F)(F)F)cc2)cc1-c1ccccc1F | < 50 µM
74 | CC(C)C(=O)Nc1cc(=O)n(-c2ccc(OC(F)(F)F)cc2)cc1-c1ccc(F)cc1 | > 200 µM
75 | Cn1cc(-c2cn(-c3ccc(OC(F)(F)F)cc3)c(=O)cc2Nc2ccccc2)cn1 | > 200 µM
76 | Cn1cc(-c2cn(-c3ccc(OC(F)(F)F)cc3)c(=O)cc2Cl)cn1 | > 200 µM
77 | Cn1cc(-c2cn(-c3ccc(OC(F)(F)F)cc3)c(=O)cc2O)cn1 | > 200 µM
78 | CC(C)OC(=O)Nc1cc(=O)n(-c2ccc(OC(F)(F)F)cc2)cc1-c1ccc(F)cc1 | > 200 µM
79 | CCCNC(=O)c1cc(=O)n(-c2ccc(OC(F)(F)F)cc2)cc1-c1cnn(C)c1 | > 200 µM
80 | CN1CCC(Oc2cc(=O)n(-c3ccc(OC(F)(F)F)cc3)cc2-c2cnn(C)c2)CC1 | < 50 µM
81 | CN1CCN(CCOc2cc(=O)n(-c3ccc(OC(F)(F)F)cc3)cc2-c2cnn(C)c2)CC1 | in the range around 125 µM
82 | CCOc1ccc(-n2cc(-c3cnn(C)c3)c(OC)cc2=O)c(C)c1 | < 50 µM
83 | COc1ccc(CN(C)c2cc(=O)n(-c3ccc(OC(F)(F)F)cc3)cc2-c2cnn(C)c2)cc1 | in the range around 125 µM
84 | Cc1cc(=O)n(-c2ccccc2)cc1-c1ccccc1 | in the range around 125 µM
85 | Cc1cc(=O)n(-c2ccc(Cl)cc2)cc1-c1ccc(F)cc1 | > 200 µM
86 | COc1cc(-n2cc(-c3ccc(F)cc3)c(C)cc2=O)cc(OC)c1OC | in the range around 125 µM
87 | CCOc1ccc(Oc2cc(=O)n(-c3ccc(OC(F)(F)F)cc3)cc2-c2cnn(C)c2)cc1C | > 200 µM
88 | CCCC(=O)Nc1cc(=O)n(-c2ccc(OC(F)(F)F)cc2)cc1-c1ccc(F)cc1 | > 200 µM
89 | CCOc1ccc(-n2cc(-c3ccc(F)cc3)c(C)cc2=O)c(C)c1 | in the range around 125 µM
90 | Cc1cc(=O)n(-c2ccccc2F)cc1-c1ccccc1 | in the range around 125 µM
91 | O=C(Nc1cc(=O)n(-c2ccc(OC(F)(F)F)cc2)cc1-c1ccc(F)cc1)Oc1ccccc1 | > 200 µM
92 | Cc1cc(=O)n(-c2ccc(OC(F)(F)F)cc2)cc1-c1cccc(Cl)c1 | in the range around 125 µM
93 | CCOC(=O)Nc1cc(=O)n(-c2ccc(OC(F)(F)F)cc2)cc1-c1cnn(C)c1 | > 200 µM
